The results in this text go back to ChEMBL document CHEMBL1770110, “Pyrimido[4,5-d]azepines as potent and selective 5-HT2C receptor agonists: design, synthesis, and evaluation of PF-3246799 as a treatment for urinary incontinence” (Bioorg Med Chem Lett, 2011).

Series [1] in a line: Volume of distribution in Beagle dog at 0.030 mg/kg, iv administered as infusion over 1 hr. It counts as ADME, organism-based, Canis lupus familiaris. Set-up: dose 0.03 mg/kg, route intravenous. To be noted: in vivo, 0.03 mg/kg.
A short description of series [2]: Intrinsic clearance in dog hepatocytes assessed per 10^6 cells. The class given is ADME, cell-based, Canis lupus familiaris, Liver, Hepatocyte.
The subject of another series is Rattus norvegicus. Put plainly: AUC (0 to infinity) in CD rat at 2 mg/kg, po administered as single dose. Set-up: time infinity, dose 2 mg/kg, route oral. It counts as ADME, organism-based, Plasma. To be noted: in vivo.
A short description of series [3]: Plasma clearance in Beagle dog at 0.030 mg/kg, iv administered as infusion over 1 hr. The class given is ADME, organism-based, Canis lupus familiaris. More on the design: dose 0.03 mg/kg, route intravenous. To be noted: 0.03 mg/kg.
The next series relates to Canis familiaris. Put plainly: Increase of peak urethral pressure in iv dosed anesthetized dog stress urinary incontinence model at 20 to 45 nM of free plasma concentration relative to control. The class given is functional, Canis lupus familiaris, Urethra.
Series [4] in a line: Cmax in CD rat at 2 mg/kg, po administered as single dose. The class given is ADME, organism-based. Set-up: dose 2 mg/kg, route oral. To be noted: in vivo.
A short description of series [5]: Intrinsic clearance in rat hepatocytes assessed per 10^6 cells. The class given is ADME, cell-based, Liver, Hepatocyte.
Series [6] can be described thus: Plasma clearance in CD rat at 1 mg/kg, iv administered as single bolus dose. The class given is ADME, organism-based. More on the design: dose 1 mg/kg, route intravenous.
Series [7] is described as follows: Volume of distribution in CD rat at 1 mg/kg, iv administered as single bolus dose. To be noted: in vivo. Set-up: dose 1 mg/kg, route intravenous. It counts as ADME, organism-based.
Series [8] is described as follows: Drug excretion in CD rat urine at 1 mg/kg, iv administered as single bolus dose. It counts as ADME, organism-based. More on the design: dose 1 mg/kg, route intravenous.
The nature of series [9]: Oral bioavailability in CD rat at 2 mg/kg administered as single dose. It counts as ADME, organism-based. To be noted: in vivo.
Series [10] is described as follows: Intrinsic clearance in dog liver microsomes. It counts as ADME, Canis lupus familiaris, Microsome.
Series [11] can be described thus: Intrinsic clearance in human liver microsomes. It counts as ADME, Microsome. For orientation: Liver microsomes are a subcellular fraction often used to study metabolism.
Series [12] in a line: Tmax in CD rat at 2 mg/kg, po administered as single dose. It counts as ADME, organism-based. Set-up: dose 2 mg/kg, route oral. To be noted: in vivo.
A short description of series [13]: Intrinsic clearance in rat liver microsomes. The class given is ADME, Microsome.
A short description of series [14]: Elimination half life in CD rat at 1 mg/kg, iv administered as single bolus dose. More on the design: dose 1 mg/kg, route intravenous. It counts as ADME, organism-based. To be noted: in vivo, read-out: beta t1/2 (converted).
Series [15] in a line: Intrinsic clearance in human hepatocytes assessed per 10^6 cells. It counts as ADME, cell-based, Liver, Hepatocyte.
Series [16] in a line: Elimination half life in Beagle dog at 0.030 mg/kg, iv administered as single infusion over 1 hr. The class given is ADME, organism-based, Canis lupus familiaris. More on the design: dose 0.03 mg/kg, route intravenous. To be noted: in vivo, 0.03 mg/kg, read-out: beta t1/2 (converted).
A short description of series [17]: Dissociation constant, pKa of the compound. It counts as physicochemical.

Bounds are passed on as bounds.

Regarding `c1ccc(Cc2ncc3c(n2)CCNCC3)cc1`, the Vd in series [1] is 3.5 L/kg; in series [7], 8.9 L/kg. Besides, the hepatocyte CLint is below 5 µL/min/1e6 cells in [2], 15 µL/min/1e6 cells in [5] and below 5 µL/min/1e6 cells in series [15]. In the series on Rattus norvegicus, this molecule displayed an AUC of 290 ng·h/mL. The clearance in [3] is 11.6 mL/min/kg; in series [6] it was 51 mL/min/kg. In the series with Canis familiaris, this molecule yielded an Activity of 20%. In series [4], the Cmax is 49 ng/mL. The same molecule registered a dose excreted in [8] of 10%. The same molecule showed a bioavailability in series [9] of 44%. Moreover, the figures for the microsomal CLint in [10], in series [11] and in series [13] were below 7 µL/min/mg, below 7 µL/min/mg and 28 µL/min/mg, respectively. The Tmax in series [12] stood at 0.25 h. Moreover, the values for the half-life in series [14] and in series [16] were 2.8 h and 3.4 h, respectively. Moreover, the pKa in series [17] turned out to be 8.5.

Broadly, the Vd is the apparent volume that relates the amount in the body to the concentration in plasma or blood. High values mean extensive tissue distribution, low ones confinement near the circulation. The hepatocyte CLint is the rate of metabolic loss divided by the concentration. Lower therefore signals greater metabolic stability. The term AUC denotes the area under the concentration-time curve, a measure of exposure. As a reminder, the clearance is the rate of elimination divided by the concentration. The low end stands for a low capacity for elimination, the high end for a high capacity for elimination. In general, Cmax refers to the peak of the concentration-time curve. The term bioavailability denotes dose-corrected exposure relative to a reference, in per cent. A lower bioavailability goes with poor availability. As a reminder, the microsomal CLint is the rate of metabolic loss divided by the concentration. What is called Tmax is the time at which the peak concentration occurs. The term pKa denotes the negative logarithm of the acid dissociation constant.
